target: T1, BRD9 (Homo sapiens, UniProt Q9H8M2); assay: HiBiT BRD9 degradation assay in 293T.166 (BRD9-HiBiT) cells; type: cell-based; design: endogenously expressing BRD9 with HiBiT fusion tag via CRISPR; host or cells: 293T.166 (BRD9-HiBiT), also expressing LgBiT ectopically; conditions: Table 1; 293T.166 cells, 2.0 hours; class symbols; read-out: HiBiT-Degradation 293T.166 BRD9 2.0 hours (DC50)
T1 sequence (Q9H8M2 1-597): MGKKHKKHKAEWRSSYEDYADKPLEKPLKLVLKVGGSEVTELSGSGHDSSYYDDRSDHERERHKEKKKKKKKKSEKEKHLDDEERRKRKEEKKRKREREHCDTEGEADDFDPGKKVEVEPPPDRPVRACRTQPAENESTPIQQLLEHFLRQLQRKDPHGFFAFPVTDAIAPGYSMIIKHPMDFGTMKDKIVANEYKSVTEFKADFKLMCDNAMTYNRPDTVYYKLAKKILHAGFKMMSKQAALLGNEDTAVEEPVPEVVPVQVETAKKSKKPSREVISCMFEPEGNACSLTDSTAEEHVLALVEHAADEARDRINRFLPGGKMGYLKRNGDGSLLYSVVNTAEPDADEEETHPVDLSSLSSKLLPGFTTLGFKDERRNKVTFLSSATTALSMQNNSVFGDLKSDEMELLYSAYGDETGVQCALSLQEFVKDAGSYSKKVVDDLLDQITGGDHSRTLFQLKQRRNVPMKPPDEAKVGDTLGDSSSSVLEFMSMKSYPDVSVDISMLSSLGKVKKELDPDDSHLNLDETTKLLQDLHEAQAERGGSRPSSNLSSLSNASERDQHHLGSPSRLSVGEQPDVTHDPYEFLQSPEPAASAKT
Summary of the method: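 293T.166 cells carrying endogenous CRISPR BRD9-HiBiT and expressing LgBiT treated 2 h at 37° C. with compounds, 11-point half-log titration from 10 μM in duplicate. Remaining BRD9 measured as lytic HiBiT luminescence; untreated cells as negative control, no-reagent wells as positive control.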

Row | SMILES | DC50
1 | COc1cc(-c2cn(C)c(=O)c3cnccc23)cc(Cl)c1C(=O)N1CCc2c(CC3CCN(c4ccc(NC5CCC(=O)NC5=O)cc4F)CC3)cccc2C1 (stereo not shown) [Compound 235] | < 100 nM
2 | COc1cc(-c2cn(C)c(=O)c3cnccc23)cc(Cl)c1C(=O)N1CCc2c(CN3CCC(c4ccc(NC5CCC(=O)NC5=O)cc4)C(F)(F)C3)cccc2C1 (stereo not shown) [Compound 236] | < 100 nM
3 | COc1cc(-c2cn(C)c(=O)c3cnccc23)cc(OC)c1CN1CCc2c(CC3CCN(c4ccc(NC5CCC(=O)NC5=O)cc4C(F)(F)F)CC3)cccc2C1 (stereo not shown) [Compound 237] | < 100 nM
4 | COc1cc(-c2cn(C)c(=O)c(C)c2C)cc(OC)c1C(=O)N1CCc2c(CC3CCN(c4ccc(NC5CCC(=O)NC5=O)cc4C(F)(F)F)CC3)cccc2C1 (stereo not shown) [Compound 238] | < 100 nM
5 | COc1cc(-c2cn(C)c(=O)c3cnccc23)cc(Cl)c1C(=O)N1CCc2c(CC3CCN(c4ccc(NC5CCC(=O)NC5=O)cc4F)CC3)ccc(F)c2C1 (stereo not shown) [Compound 239, 3-[4-[4-[[2-[2-chloro-6-methoxy-4-(2-methyl-1-oxo-2,7-naphthyridin-4-yl)benzoyl]-8-fluoro-3,4-dihydro-1H-isoquinolin-5-yl]methyl]-1-piperidyl]-3-fluoro-anilino]piperidine-2,6-dione] | < 100 nM
6 | COc1cc(-c2cn(C)c(=O)c3[nH]ncc23)cc(Cl)c1C(=O)N1CCc2c(CC3CCN(c4ccc(NC5CCC(=O)NC5=O)cc4F)CC3)ccc(F)c2C1 (stereo not shown) [Compound 240] | < 100 nM
7 | COc1cc(-c2cn(C)c(=O)c3cnccc23)cc(Cl)c1C(=O)N1CCC(CCC2CCN(c3ccc(NC4CCC(=O)NC4=O)cc3F)CC2)CC1 (stereo not shown) [Compound 241, 3-[4-[4-[2-[1-[2-chloro-6-methoxy-4-(2-methyl-1-oxo-2,7-naphthyridin-4-yl)benzoyl]-4-piperidyl]ethyl]-1-piperidyl]-3-fluoro-anilino]piperidine-2,6-dione] | < 100 nM
8 | COc1cc(-c2cn(C)c(=O)c3cnccc23)cc(Cl)c1C(=O)N1CCC(CCC2CCN(c3ccc(NC4CCC(=O)NC4=O)cc3C(F)(F)F)CC2)CC1 (stereo not shown) [Compound 242] | < 100 nM
9 | COc1cc(-c2cn(C)c(=O)c(C)c2C)cc(Cl)c1C(=O)N1CCC(CCC2CCN(c3ccc(NC4CCC(=O)NC4=O)cc3F)CC2)CC1 (stereo not shown) [Compound 243] | < 100 nM
10 | Cc1c(-c2ccc(CN3CCC(F)(C4CCN(c5ccc(NC6CCC(=O)NC6=O)cc5F)CC4)CC3)c(OC(F)(F)F)c2)cn(C)c(=O)c1C (stereo not shown) [Compound 244] | < 100 nM
11 | COc1cc(-c2cn(C)c(=O)c(C)c2C)cc(Cl)c1CN1CCC(F)(C2CCN(c3ccc(NC4CCC(=O)NC4=O)cc3F)CC2)CC1 (stereo not shown) [Compound 245] | < 100 nM

same assay, conditions: Table 2; 293T.166 cells, 2.0 hours; class symbols; read-out: HiBiT-Degradation 293T.166 BRD9 2.0 hours (DC50)

Row | SMILES | DC50
12 | COc1cc(-c2cn(C)c(=O)c(C)c2C)cc(Cl)c1CN1CCC(N2CCN(c3ccc(N(C)C4CCC(=O)NC4=O)cc3F)CC2)C(F)(F)C1 (stereo not shown) [Compound 248] | < 100 nM
13 | COc1cc(-c2cn(C)c(=O)c(C)c2C)cc(OC)c1CN1CCC(N2CCN(c3ccc(OC4CCC(=O)NC4=O)cc3F)CC2)C(F)(F)C1 (stereo not shown) [Compound 251, 3-[4-[4-[1-[[2,6-dimethoxy-4-(1,4,5-trimethyl-6-oxo-3-pyridyl)phenyl]methyl]-3,3-difluoro-4-piperidyl]piperazin-1-yl]-3-fluoro-phenoxy]piperidine-2,6-dione] | < 100 nM
14 | [2H]C([2H])([2H])n1cc(-c2ccc(CN3CCC(C4CCN(c5ccc(NC6CCC(=O)NC6=O)cc5F)CC4)CC3)c(OC(F)(F)F)c2)c2ccncc2c1=O (stereo not shown) [Compound 252, 3-[3-fluoro-4-[4-[1-[[4-[1-oxo-2-(trideuteriomethyl)-2,7-naphthyridin-4-yl]-2-(trifluoromethoxy)phenyl]methyl]-4-piperidyl]-1-piperidyl]anilino]piperidine-2,6-dione] | < 100 nM
15 | Cn1cc(-c2ccc(CN3CCC(N4CCN(c5ccc(NC6CCC(=O)NC6=O)nc5)CC4)C(F)(F)C3)c(OC(F)(F)F)c2)c2ccncc2c1=O (stereo not shown) [Compound 253, 3-[[5-[4-[3,3-difluoro-1-[[4-(2-methyl-1-oxo-2,7-naphthyridin-4-yl)-2-(trifluoromethoxy)phenyl]methyl]-4-piperidyl]piperazin-1-yl]-2-pyridyl]amino]piperidine-2,6-dione] | < 100 nM
16 | COc1cc(-c2cn(C)c(=O)c3cnccc23)cc(Cl)c1CN1CCC(N2CCN(c3ccc(N(C)C4CCC(=O)NC4=O)cc3F)CC2)C(F)(F)C1 (stereo not shown) [Compound 254, 3-[4-[4-[1-[[2-chloro-6-methoxy-4-(2-methyl-1-oxo-2,7-naphthyridin-4-yl)phenyl]methyl]-3,3-difluoro-4-piperidyl]piperazin-1-yl]-3-fluoro-N-methyl-anilino]piperidine-2,6-dione] | < 100 nM
17 | COc1cc(-c2cn(C)c(=O)c3cnccc23)c(Cl)cc1CN1CCC(N2CCN(c3ccc(NC4CCC(=O)NC4=O)cc3F)CC2)C(F)(F)C1 (stereo not shown) [Compound 255] | < 100 nM
18 | COc1cc(-c2cn(C)c(=O)c(C)c2C)cnc1CN1CCC(N2CCN(c3ccc(NC4CCC(=O)NC4=O)cc3F)CC2)C(F)(F)C1 (stereo not shown) [Compound 260, 3-[4-[4-[3,3-difluoro-1-[[3-methoxy-5-(1,4,5-trimethyl-6-oxo-3-pyridyl)-2-pyridyl]methyl]-4-piperidyl]piperazin-1-yl]-3-fluoro-anilino]piperidine-2,6-dione] | < 100 nM
19 | COc1cc(-c2cn(C)c(=O)c3ccccc23)cnc1CN1CCC(N2CCN(c3ccc(NC4CCC(=O)NC4=O)cc3F)CC2)C(F)(F)C1 (stereo not shown) [Compound 261, 3-[4-[4-[3,3-difluoro-1-[[3-methoxy-5-(2-methyl-1-oxo-4-isoquinolyl)-2-pyridyl]methyl]-4-piperidyl]piperazin-1-yl]-3-fluoro-anilino]piperidine-2,6-dione] | < 100 nM
20 | COc1cc(-c2cn(C)c(=O)c3cnccc23)cc(Cl)c1CN1CCC(C2CCN(c3ccc(NC4CCC(=O)NC4=O)nc3)CC2)C(F)(F)C1 (stereo not shown) [Compound 262] | < 100 nM
21 | COc1cc(-c2cn(C)c(=O)c(C)c2C)cc(Cl)c1CN1CCC(F)(CCC2CCN(c3ccc(NC4CCC(=O)NC4=O)cc3Cl)CC2)CC1 (stereo not shown) [Compound 263] | < 100 nM
22 | COc1cc(-c2cn(C)c(=O)c(C)c2C)cc(Cl)c1CN1CCc2c(CC3CCN(c4ccc(NC5CCC(=O)NC5=O)nc4)CC3)cccc2C1 (stereo not shown) [Compound 264, 3-[[5-[4-[[2-[[2-chloro-6-methoxy-4-(1,4,5-trimethyl-6-oxo-3-pyridyl)phenyl]methyl]-3,4-dihydro-1H-isoquinolin-5-yl]methyl]-1-piperidyl]-2-pyridyl]amino]piperidine-2,6-dione] | < 100 nM
23 | C/C=C/Cn1cc(-c2cc(OC)c(CN3CCC(N4CCN(c5ccc(NC6CCC(=O)NC6=O)cc5F)CC4)C(F)(F)C3)c(OC)c2)c(C)c(C)c1=O (stereo not shown) [Compound 265, 3-[4-[4-[1-[[4-[1-[(E)-but-2-enyl]-4,5-dimethyl-6-oxo-3-pyridyl]-2,6-dimethoxy-phenyl]methyl]-3,3-difluoro-4-piperidyl]piperazin-1-yl]-3-fluoro-anilino]piperidine-2,6-dione] | < 100 nM
24 | C/C=C/Cn1cc(-c2cc(Cl)c(CN3CCC(N4CCN(c5ccc(NC6CCC(=O)NC6=O)cc5F)CC4)C(F)(F)C3)c(OC)c2)c2ccncc2c1=O (stereo not shown) [Compound 266] | < 100 nM
25 | COc1cc(-c2cn(C)c(=O)c3cnccc23)cc(Cl)c1CN1C2CCC1CN(C(=O)CC1CCN(c3ccc(NC4CCC(=O)NC4=O)cc3F)CC1)C2 (stereo not shown) [Compound 271] | < 100 nM
26 | COc1cc(-c2cn(C)c(=O)c(C)c2C)cc(OC)c1CN1C2CCC1CN(C(=O)CC1CCN(c3ccc(NC4CCC(=O)NC4=O)nc3)CC1)C2 (stereo not shown) [Compound 272] | < 100 nM
27 | COc1cc(-c2cn(C)c(=O)c(C)c2C)cc(Cl)c1CN1CCC(C2CCN(c3ccc(NC4CCC(=O)NC4=O)nc3)CC2)C(F)(F)C1 (stereo not shown) [Compound 273] | < 100 nM
28 | COc1cc(-c2cn(C)c(=O)c3cnccc23)cc(Cl)c1C(=O)N1CCC(F)(C2CCN(c3ccc(NC4CCC(=O)NC4=O)cc3F)CC2)CC1 (stereo not shown) [Compound 275] | < 100 nM

— patent publication US11691972B2, “Compounds for targeted degradation of BRD9” (C4 Therapeutics, Inc., priority 2020, dated 2023)
